Test results taken from patent publication US20250101023A1, “HETEROARYL DERIVATIVE AND USES THEREOF” (IUCF-HYU (INDUSTRY-UNIVERSITY COOPERATION FOUNDATION …, priority 2022, published 2025).

Tests used:
PASK = PASK (Homo sapiens (Human), UniProt Q96RG2); experiment: Kinome-wide profiling; format: biochemical; details: read-out: % Residual Activity (mean)
STK16 = STK16 (Homo sapiens (Human), UniProt O75716); experiment: Kinome-wide profiling; format: biochemical; details: read-out: % Residual Activity (mean)
GRK4 = GRK4 (Homo sapiens (Human), UniProt P32298); experiment: Kinome-wide profiling; format: biochemical; details: read-out: % Residual Activity (mean)
MARK1 = MARK1 (Homo sapiens (Human), UniProt Q9P0L2); experiment: Kinome-wide profiling; format: biochemical; details: read-out: % Residual Activity (mean)
MARK1, sequence (Q9P0L2 whole entry): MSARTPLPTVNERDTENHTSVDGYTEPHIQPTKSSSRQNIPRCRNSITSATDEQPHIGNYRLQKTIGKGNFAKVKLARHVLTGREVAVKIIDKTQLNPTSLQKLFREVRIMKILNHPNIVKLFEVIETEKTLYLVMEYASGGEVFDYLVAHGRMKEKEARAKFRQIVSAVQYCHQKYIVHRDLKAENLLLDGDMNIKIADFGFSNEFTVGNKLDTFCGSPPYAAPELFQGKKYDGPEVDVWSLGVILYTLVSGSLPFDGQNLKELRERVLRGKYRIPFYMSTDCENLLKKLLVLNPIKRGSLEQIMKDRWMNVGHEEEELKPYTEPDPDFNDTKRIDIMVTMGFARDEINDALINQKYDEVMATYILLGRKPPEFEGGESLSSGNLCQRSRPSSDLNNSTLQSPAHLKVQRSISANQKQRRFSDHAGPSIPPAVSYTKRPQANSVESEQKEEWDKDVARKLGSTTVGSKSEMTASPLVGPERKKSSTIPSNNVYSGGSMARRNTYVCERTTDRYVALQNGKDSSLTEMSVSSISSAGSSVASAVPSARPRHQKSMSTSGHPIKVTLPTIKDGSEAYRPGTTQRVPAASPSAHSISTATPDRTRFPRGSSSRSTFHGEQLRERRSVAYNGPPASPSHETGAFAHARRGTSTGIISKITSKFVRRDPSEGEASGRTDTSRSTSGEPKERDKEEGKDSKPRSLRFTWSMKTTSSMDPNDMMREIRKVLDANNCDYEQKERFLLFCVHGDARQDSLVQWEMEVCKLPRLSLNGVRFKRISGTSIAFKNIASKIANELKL

ERN1/IRE1 = ERN1/IRE1 (Homo sapiens (Human), UniProt O75460); experiment: Kinome-wide profiling; format: biochemical; details: read-out: % Residual Activity (mean)
TAOK2/TAO1 = TAOK2/TAO1 (Homo sapiens (Human), UniProt Q9UL54); experiment: Kinome-wide profiling; format: biochemical; details: read-out: % Residual Activity (mean)
TAOK2/TAO1, sequence (Q9UL54 whole entry): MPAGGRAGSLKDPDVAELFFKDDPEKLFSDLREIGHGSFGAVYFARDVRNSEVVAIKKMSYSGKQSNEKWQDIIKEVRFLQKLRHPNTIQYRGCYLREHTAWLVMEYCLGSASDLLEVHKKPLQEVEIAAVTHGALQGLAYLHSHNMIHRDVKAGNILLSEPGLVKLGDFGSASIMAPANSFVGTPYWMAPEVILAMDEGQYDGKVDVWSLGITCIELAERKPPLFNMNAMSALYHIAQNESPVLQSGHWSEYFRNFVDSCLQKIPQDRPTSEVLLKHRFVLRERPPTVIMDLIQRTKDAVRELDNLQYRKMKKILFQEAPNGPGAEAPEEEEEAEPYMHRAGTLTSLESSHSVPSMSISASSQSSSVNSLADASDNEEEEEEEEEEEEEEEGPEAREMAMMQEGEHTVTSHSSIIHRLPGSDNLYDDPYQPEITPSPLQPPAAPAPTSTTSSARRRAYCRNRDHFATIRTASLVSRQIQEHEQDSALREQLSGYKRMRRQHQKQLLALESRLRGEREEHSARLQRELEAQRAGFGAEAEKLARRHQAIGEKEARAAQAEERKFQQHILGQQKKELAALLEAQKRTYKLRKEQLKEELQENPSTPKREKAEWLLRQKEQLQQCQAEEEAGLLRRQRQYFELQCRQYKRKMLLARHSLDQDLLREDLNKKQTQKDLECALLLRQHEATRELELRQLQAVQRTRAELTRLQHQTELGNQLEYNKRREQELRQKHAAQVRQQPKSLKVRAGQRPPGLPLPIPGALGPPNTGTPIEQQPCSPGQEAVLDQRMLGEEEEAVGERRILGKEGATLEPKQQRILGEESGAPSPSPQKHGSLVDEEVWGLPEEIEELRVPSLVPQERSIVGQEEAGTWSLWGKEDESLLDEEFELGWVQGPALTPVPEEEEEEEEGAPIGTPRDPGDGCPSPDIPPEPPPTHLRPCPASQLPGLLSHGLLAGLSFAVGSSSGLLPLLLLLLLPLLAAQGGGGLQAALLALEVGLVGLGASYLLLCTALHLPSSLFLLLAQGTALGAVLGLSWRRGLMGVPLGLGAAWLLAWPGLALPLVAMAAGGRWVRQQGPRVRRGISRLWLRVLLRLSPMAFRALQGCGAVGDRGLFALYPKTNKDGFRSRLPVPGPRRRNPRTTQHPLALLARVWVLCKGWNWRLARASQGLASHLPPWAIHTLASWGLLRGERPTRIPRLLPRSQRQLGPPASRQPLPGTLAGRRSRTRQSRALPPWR

TYK2 = TYK2 (Homo sapiens (Human), UniProt P29597); experiment: Kinome-wide profiling; format: biochemical; details: read-out: % Residual Activity (mean)
LATS2 = LATS2 (Homo sapiens (Human), UniProt Q9NRM7); experiment: Kinome-wide profiling; format: biochemical; details: read-out: % Residual Activity (mean)
LATS2, sequence (Q9NRM7 whole entry): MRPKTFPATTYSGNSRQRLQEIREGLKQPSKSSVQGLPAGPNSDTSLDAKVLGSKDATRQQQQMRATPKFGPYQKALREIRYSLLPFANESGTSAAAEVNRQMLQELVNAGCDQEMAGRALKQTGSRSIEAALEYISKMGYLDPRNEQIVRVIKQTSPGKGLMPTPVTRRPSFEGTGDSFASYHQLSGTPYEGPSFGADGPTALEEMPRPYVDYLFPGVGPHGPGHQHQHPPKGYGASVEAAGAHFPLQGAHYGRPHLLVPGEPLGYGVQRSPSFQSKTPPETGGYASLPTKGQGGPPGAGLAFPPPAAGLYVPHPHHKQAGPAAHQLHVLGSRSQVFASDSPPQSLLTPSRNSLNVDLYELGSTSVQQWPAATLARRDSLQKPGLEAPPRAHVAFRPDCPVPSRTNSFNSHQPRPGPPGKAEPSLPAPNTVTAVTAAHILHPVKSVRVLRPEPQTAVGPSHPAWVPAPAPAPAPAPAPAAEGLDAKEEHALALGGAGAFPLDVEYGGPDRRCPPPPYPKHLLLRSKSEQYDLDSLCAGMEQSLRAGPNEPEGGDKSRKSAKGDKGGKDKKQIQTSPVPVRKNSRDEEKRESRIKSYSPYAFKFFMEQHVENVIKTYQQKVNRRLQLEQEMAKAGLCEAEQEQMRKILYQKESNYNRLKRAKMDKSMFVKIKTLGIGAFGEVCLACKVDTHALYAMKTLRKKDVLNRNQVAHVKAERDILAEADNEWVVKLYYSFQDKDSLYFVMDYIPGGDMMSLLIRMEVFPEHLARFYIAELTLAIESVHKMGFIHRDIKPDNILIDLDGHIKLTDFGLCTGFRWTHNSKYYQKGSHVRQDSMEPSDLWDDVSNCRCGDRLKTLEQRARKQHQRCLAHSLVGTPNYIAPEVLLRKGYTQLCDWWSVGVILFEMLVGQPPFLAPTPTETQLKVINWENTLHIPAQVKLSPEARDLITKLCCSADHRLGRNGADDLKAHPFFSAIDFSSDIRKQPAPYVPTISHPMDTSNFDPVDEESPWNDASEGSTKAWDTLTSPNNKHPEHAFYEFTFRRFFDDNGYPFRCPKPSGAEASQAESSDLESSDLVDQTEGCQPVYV

BRSK1 = BRSK1 (Homo sapiens (Human), UniProt Q8TDC3); experiment: Kinome-wide profiling; format: biochemical; details: read-out: % Residual Activity (mean)
Haspin = Haspin (Homo sapiens (Human), UniProt Q8TF76); experiment: Kinome-wide profiling; format: biochemical; details: read-out: % Residual Activity (mean)
CDK2/CYCLIN E = CDK2/CYCLIN E (Homo sapiens (Human), UniProt P24941); experiment: Kinome-wide profiling; format: biochemical; details: read-out: % Residual Activity (mean)
MKK6 = MKK6 (Homo sapiens (Human), UniProt P52564); experiment: Kinome-wide profiling; format: biochemical; details: read-out: % Residual Activity (mean)
DCAMKL1 = DCAMKL1 (Homo sapiens (Human), UniProt O15075); experiment: Kinome-wide profiling; format: biochemical; details: read-out: % Residual Activity (mean)
PAK4 = PAK4 (Homo sapiens (Human), UniProt O96013); experiment: Kinome-wide profiling; format: biochemical; details: read-out: % Residual Activity (mean)
EPHA8 = EPHA8 (Homo sapiens (Human), UniProt P29322); experiment: Kinome-wide profiling; format: biochemical; details: read-out: % Residual Activity (mean)
EPHA8, sequence (P29322 28-1005): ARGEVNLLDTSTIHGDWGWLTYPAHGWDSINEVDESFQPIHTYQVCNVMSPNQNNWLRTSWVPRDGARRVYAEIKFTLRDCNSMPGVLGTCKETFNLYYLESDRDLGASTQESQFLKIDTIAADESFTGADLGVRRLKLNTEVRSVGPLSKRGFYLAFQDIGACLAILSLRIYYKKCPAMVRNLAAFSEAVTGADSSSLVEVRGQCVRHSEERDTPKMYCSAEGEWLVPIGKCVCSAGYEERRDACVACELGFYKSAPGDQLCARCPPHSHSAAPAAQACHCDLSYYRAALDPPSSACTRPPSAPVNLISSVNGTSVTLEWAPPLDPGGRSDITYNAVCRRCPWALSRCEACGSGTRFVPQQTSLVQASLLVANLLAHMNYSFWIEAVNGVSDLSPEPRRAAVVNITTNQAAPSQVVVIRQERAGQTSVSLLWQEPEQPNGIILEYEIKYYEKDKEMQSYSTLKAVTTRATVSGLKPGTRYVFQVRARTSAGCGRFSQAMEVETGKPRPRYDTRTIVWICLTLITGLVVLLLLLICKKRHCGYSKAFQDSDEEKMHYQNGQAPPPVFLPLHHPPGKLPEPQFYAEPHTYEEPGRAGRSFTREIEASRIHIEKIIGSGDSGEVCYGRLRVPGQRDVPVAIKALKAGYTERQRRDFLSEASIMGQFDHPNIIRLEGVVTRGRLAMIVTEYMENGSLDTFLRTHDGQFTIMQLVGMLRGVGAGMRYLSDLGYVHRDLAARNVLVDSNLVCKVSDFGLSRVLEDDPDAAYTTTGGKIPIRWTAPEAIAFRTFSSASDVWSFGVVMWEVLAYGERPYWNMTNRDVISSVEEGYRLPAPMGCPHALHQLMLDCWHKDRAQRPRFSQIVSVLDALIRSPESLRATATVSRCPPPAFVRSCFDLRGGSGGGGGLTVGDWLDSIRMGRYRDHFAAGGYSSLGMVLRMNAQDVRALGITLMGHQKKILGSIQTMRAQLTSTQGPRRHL

TRKB = TRKB (Homo sapiens (Human), UniProt Q16620); experiment: Kinome-wide profiling; format: biochemical; details: read-out: % Residual Activity (mean)
MST2/STK3 = MST2/STK3 (Homo sapiens (Human), UniProt Q13188); experiment: Kinome-wide profiling; format: biochemical; details: read-out: % Residual Activity (mean)
DYRK2 = DYRK2 (Homo sapiens (Human), UniProt Q92630); experiment: Kinome-wide profiling; format: biochemical; details: read-out: % Residual Activity (mean)
STK32C/YANK3 = STK32C/YANK3 (Homo sapiens (Human), UniProt Q86UX6); experiment: Kinome-wide profiling; format: biochemical; details: read-out: % Residual Activity (mean)
p70S6Kb/RPS6KB2 = p70S6Kb/RPS6KB2 (Homo sapiens (Human), UniProt Q9UBS0); experiment: Kinome-wide profiling; format: biochemical; details: read-out: % Residual Activity (mean)
p70S6Kb/RPS6KB2, sequence (Q9UBS0 whole entry): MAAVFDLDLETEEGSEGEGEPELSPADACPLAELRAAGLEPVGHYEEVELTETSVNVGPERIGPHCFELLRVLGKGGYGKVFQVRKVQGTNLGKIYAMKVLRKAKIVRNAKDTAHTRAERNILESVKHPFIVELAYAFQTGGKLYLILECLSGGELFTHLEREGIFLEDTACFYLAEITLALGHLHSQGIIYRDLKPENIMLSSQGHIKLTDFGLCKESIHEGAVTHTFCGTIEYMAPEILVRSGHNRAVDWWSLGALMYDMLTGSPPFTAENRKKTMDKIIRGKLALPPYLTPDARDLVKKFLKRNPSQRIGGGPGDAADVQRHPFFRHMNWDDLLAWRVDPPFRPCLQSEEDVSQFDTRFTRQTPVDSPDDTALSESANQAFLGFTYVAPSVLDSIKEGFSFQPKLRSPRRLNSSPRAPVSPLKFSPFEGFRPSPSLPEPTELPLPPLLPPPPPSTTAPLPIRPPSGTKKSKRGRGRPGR

RSK4 = RSK4 (Homo sapiens (Human), UniProt Q9UK32); experiment: Kinome-wide profiling; format: biochemical; details: read-out: % Residual Activity (mean)
PKA = PKA (Homo sapiens (Human), UniProt P17612); experiment: Kinome-wide profiling; format: biochemical; details: read-out: % Residual Activity (mean)
DRAK1/STK17A = DRAK1/STK17A (Homo sapiens (Human), UniProt Q9UEE5); experiment: Kinome-wide profiling; format: biochemical; details: read-out: % Residual Activity (mean)
CK1d = CK1d (Homo sapiens (Human), UniProt P48730); experiment: Kinome-wide profiling; format: biochemical; details: read-out: % Residual Activity (mean)
CDK9/cyclin T1 = CDK9/cyclin T1 (Homo sapiens (Human), UniProt P50750); experiment: Kinome-wide profiling; format: biochemical; details: read-out: % Residual Activity (mean)
LCK = LCK (Homo sapiens (Human), UniProt P06239); experiment: Kinome-wide profiling; format: biochemical; details: read-out: % Residual Activity (mean)
SGK2 = SGK2 (Homo sapiens (Human), UniProt Q9HBY8); experiment: Kinome-wide profiling; format: biochemical; details: read-out: % Residual Activity (mean)
HIPK3 = HIPK3 (Homo sapiens (Human), UniProt Q9H422); experiment: Kinome-wide profiling; format: biochemical; details: read-out: % Residual Activity (mean)
[1] = tested on: Pol II CTD (Ser2) phosphorylation; experiment: Western blot, Pol II CTD Ser2 phosphorylation; format: cell-based; details: SK-Br3 and HCC1954 cell lines, 40 and 200 nM, 2 hours
p70S6K/RPS6KB1 = p70S6K/RPS6KB1 (Homo sapiens (Human), UniProt P23443); experiment: Kinome-wide profiling; format: biochemical; details: read-out: % Residual Activity (mean)
cyclinK = experiment: Western blot, cyclinK degradation; format: cell-based; details: SK-Br3 and HCC1954 cell lines, 40 and 200 nM, 2 hours
MKK4 = MKK4 (Homo sapiens (Human), UniProt P45985); experiment: Kinome-wide profiling; format: biochemical; details: read-out: % Residual Activity (mean)
MYLK4 = MYLK4 (Homo sapiens (Human), UniProt Q86YV6); experiment: Kinome-wide profiling; format: biochemical; details: read-out: % Residual Activity (mean)
MYLK4, sequence (Q86YV6 whole entry): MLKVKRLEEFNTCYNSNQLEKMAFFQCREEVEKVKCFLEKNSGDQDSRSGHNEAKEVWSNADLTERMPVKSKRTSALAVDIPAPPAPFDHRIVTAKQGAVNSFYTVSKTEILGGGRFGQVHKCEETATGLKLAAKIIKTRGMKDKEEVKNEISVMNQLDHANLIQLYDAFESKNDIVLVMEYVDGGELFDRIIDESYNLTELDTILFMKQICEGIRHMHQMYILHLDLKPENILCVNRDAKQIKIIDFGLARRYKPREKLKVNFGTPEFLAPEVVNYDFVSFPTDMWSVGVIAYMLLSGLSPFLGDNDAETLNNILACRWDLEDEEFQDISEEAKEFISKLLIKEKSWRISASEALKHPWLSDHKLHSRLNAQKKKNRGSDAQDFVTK

PAK3 = PAK3 (Homo sapiens (Human), UniProt O75914); experiment: Kinome-wide profiling; format: biochemical; details: read-out: % Residual Activity (mean)
CSK = CSK (Homo sapiens (Human), UniProt P41240); experiment: Kinome-wide profiling; format: biochemical; details: read-out: % Residual Activity (mean)
MST1/STK4 = MST1/STK4 (Homo sapiens (Human), UniProt Q13043); experiment: Kinome-wide profiling; format: biochemical; details: read-out: % Residual Activity (mean)
CDK12/CyclinK = CDK12/CyclinK (Homo sapiens (Human), UniProt Q9NYV4); experiment: CDK12/cyclinK enzyme activity; format: biochemical; details: in vitro
MEKK3 = MEKK3 (Homo sapiens (Human), UniProt Q99759); experiment: Kinome-wide profiling; format: biochemical; details: read-out: % Residual Activity (mean)
PKCb2 = PKCb2 (Homo sapiens (Human), UniProt P05771); experiment: Kinome-wide profiling; format: biochemical; details: read-out: % Residual Activity (mean)

**Q.** Which results are given for `CCn1cnc2c(NCc3ccc(-c4ccccn4)nc3)nc(-c3ccc(N)nc3)nc21` [Example 53, N-([2,2′-bipyridin]-5-ylmethyl)-2-(6-aminopyridin-3-yl)-9-ethyl-9H-purin-6-amine]?
**A.** remaining activity at 10 µM (PASK): 96.3%; remaining activity at 10 µM (STK16): 35.9%; remaining activity at 10 µM (GRK4): 88.3%; remaining activity at 10 µM (MARK1): 81.5%; remaining activity at 10 µM (ERN1/IRE1): 50.8%; remaining activity at 10 µM (TAOK2/TAO1): 23.8%; remaining activity at 10 µM (TYK2): 90.7%; remaining activity at 10 µM (LATS2): 77.4%; remaining activity at 10 µM (BRSK1): 92.8%; remaining activity at 10 µM (Haspin): 79.4%; remaining activity at 10 µM (CDK2/CYCLIN E): 4.01%; remaining activity at 10 µM (MKK6): 95.4%; remaining activity at 10 µM (DCAMKL1): 72.6%; remaining activity at 10 µM (PAK4): 12.9%; remaining activity at 10 µM (EPHA8): 94%; remaining activity at 10 µM (TRKB): 16.5%; remaining activity at 10 µM (MST2/STK3): 53.5%; remaining activity at 10 µM (DYRK2): 22.3%; remaining activity at 10 µM (STK32C/YANK3): 86.7%; remaining activity at 10 µM (p70S6Kb/RPS6KB2): 92.2%; remaining activity at 10 µM (RSK4): 54.2%; remaining activity at 10 µM (PKA): 93.1%; remaining activity at 10 µM (DRAK1/STK17A): 79.3%; remaining activity at 10 µM (CK1d): 10.2%; remaining activity at 10 µM (CDK9/cyclin T1): 0.78%; remaining activity at 10 µM (LCK): 83.6%; remaining activity at 10 µM (SGK2): 84.7%; remaining activity at 10 µM (HIPK3): 94.1%; Pol II CTD (Ser2) phosphorylation [1]: inhibited Pol II CTD (Ser2) phosphorylation; Pol II CTD (Ser2) phosphorylation ([1]; listed as Compound 53): strong dose-dependent suppression of Pol II phosphorylation; remaining activity at 10 µM (p70S6K/RPS6KB1): 92.1%; cyclinK degradation (cyclinK): induced cyclinK degradation; cyclinK degradation (cyclinK; listed as Compound 53): cyclinK levels were greatly suppressed in a dose-dependent manner; remaining activity at 10 µM (MKK4): 96.4%; remaining activity at 10 µM (MYLK4): 4.07%; remaining activity at 10 µM (PAK3): 29.1%; remaining activity at 10 µM (CSK): 54.8%; remaining activity at 10 µM (MST1/STK4): 62.2%; IC50 (CDK12/CyclinK): 0.03 µM; remaining activity at 10 µM (MEKK3): 94%; remaining activity at 10 µM (PKCb2): 39.6%
